In assay [1] the target is T1, human recombinant JAK2 protein (Homo sapiens, UniProt O60674).
T1 construct: purchased Carna Biosciences 08-045
Briefly: JAK2 Inhibition Assay (HTRF kinase assay). The format is biochemical. As to conditions: human recombinant JAK2, 2.5 μM ATP substrate solution. In short, it runs like this:
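Recombinant human JAK2 was preincubated 15 min at room temperature with compound in buffer containing 5 mM MgCl2, 1 mM DTT and 0.01% Brij35. Substrate solution (2.5 μM ATP, 0.25 μM biotinylated TK substrate) was then added for 30 min. Phosphorylation was detected by HTRF (665/620 nm ratio; no-enzyme = 100% inhibition), and IC50 was fitted from an 8-point, 4-fold series.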
(Time-resolved FRET reads energy transfer from a long-lived donor to a nearby acceptor.)

The target of assay [2] is T2, human recombinant TYK2 protein (Homo sapiens, UniProt P29597).
T2 construct: purchased Carna Biosciences 08-147
T2 sequence (P29597 871-1187 limits assumed): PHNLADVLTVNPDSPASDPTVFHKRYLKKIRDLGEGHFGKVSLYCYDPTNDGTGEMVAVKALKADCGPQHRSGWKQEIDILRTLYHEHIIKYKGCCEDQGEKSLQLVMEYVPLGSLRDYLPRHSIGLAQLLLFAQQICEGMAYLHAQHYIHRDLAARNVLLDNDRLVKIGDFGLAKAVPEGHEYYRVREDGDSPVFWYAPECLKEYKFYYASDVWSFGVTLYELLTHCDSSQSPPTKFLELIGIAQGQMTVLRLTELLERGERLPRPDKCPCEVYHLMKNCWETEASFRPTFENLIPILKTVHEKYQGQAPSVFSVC
The experiment in a line: TYK2 Inhibition Assay (HTRF kinase assay). The format is biochemical. The settings on record: human recombinant TYK2, 11.25 μM ATP substrate solution. The method in brief:
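Recombinant human TYK2 was pre-incubated 15 min at room temperature with compound, then reacted for 40 min with biotinylated tyrosine-kinase substrate and ATP (substrate solution 11.25 μM ATP, 0.5 μM substrate; 5 mM MgCl2, 0.01% Brij35). Phosphorylation was read by HTRF 665/620 ratio, normalised to no-enzyme and no-compound controls, and IC50 was fitted from 8 4-fold dilutions.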

Assay [3] has as its system IL-12-induced IFN-γ secretion in NK92 cells. Briefly: Inhibition of IL-12-induced IFN-γ Secretion in NK92 Cells (ELISA). The assay is classed as cell-based, human. The settings on record: Homo sapiens, 24 hours incubation, 8 concentration points, read-out: IC50 (NK92_IL12/IFNγ). As to the method:
Inhibition of IL-12-induced IFN-γ Secretion in NK92 Cells
The effect of the compounds of the present invention on IFN-γ secretion induced by IL-12 in NK92 cells was evaluated by an enzyme-linked immunosorbent assay (ELISA).
IL-12 receptor is mainly expressed in activated T-cells, NK cells (NK92 is a NK cell line), DC cells, and B-cells. When binding to IL-12, it activates JAK2/TYK2 signal transduction pathway within NK cells and T lymphocytes, thereby inducing secretion of IFN-γ.
The experimental method is generally described below:
The test compound was dissolved in DMSO to 2.5 mM, followed by a serial 4-fold dilution with DMSO to a minimum concentration of […]. Each concentration was further diluted 50-fold with an FBS-free MEMα medium (Gibco, 12561-056).
NK92 cells (Nanjing Cobioer, CBP60980) were cultured in a complete MEMα medium containing 12.5% FBS (Ausbian, VS500T), 12.5% horse serum (Gibco, 16050-122), 0.02 mM folic acid (Sigma, F8758), 0.2 mM inositol (Sigma, 17850), 0.55 mM β-mercaptoethanol (Gibco, 21985-023), 200 U/mL IL-2 (R&D Systems, 202-1L), and 100 U/mL penicillin (Thermofisher, 15140122). When covering 80-90% of the culture container surface, the cells were dispersed and plated on a 96-well plate (Thermofisher, 167425) with 100,000 cells per well (80 μL of the complete MEMα medium without IL-2). The 96-well plate was then incubated overnight in a 37° C./5% CO2 incubator.
After overnight incubation, 10 μL of the test compound and 10 μL of 50 ng/mL IL-12 (R & D Systems, 219-1L) were added to each well and mix gently, and the 96-well plate was incubated in the 37° C./5% CO2 incubator for additional 24 hours. The plate as centrifuged at 800 rpm for 10 minutes at room temperature and 50 μL of the supernatant from each well was transferred to another 96-well plate (Sigma, CLS3695) coated with anti-IFN-γ antibody. The amount of IFN-γ secretion was detected following the instruction from the Human IFN-γ DuoSet ELISA kit (R & D Systems, DY285B). In the experiment, the group with IL-12 and the test compound being replaced with the MEMα medium was the non-stimulated control group (100% inhibition), and the group with IL-12 and 0.2% DMSO was the stimulated group (0% inhibition). The percentage of inhibition on IL-12 induced IFN-γ secretion in NK-92 cells by the test compound was calculated using the following formula: Percentage of inhibition=100−100*(signalcompound−signalnon-stimulated control)/(signalstimulated control−signalnon-stimulated control)
The IC50 value of the test compound was calculated front 8 concentration points using the XLfit software (ID Business Solutions Ltd., UK) by the following formula: Y=Bottom+(Top−Bottom)/(1+10^((log IC50−X)×slope factor))
Where Y was the percentage of inhibition, X was the logarithm of the concentration of the test compound, Bottom was the bottom plateau value of the S-shaped curve, Top was the top plateau value of the S-shaped curve, and slope factor was the slope coefficient of the curve.
(An ELISA detects its analyte on a solid surface through an enzyme-linked reagent.)

The structures appear in SMILES notation. pIC50: −log10 of the molar value.

T1 sequence (O60674 826-1132 limits assumed): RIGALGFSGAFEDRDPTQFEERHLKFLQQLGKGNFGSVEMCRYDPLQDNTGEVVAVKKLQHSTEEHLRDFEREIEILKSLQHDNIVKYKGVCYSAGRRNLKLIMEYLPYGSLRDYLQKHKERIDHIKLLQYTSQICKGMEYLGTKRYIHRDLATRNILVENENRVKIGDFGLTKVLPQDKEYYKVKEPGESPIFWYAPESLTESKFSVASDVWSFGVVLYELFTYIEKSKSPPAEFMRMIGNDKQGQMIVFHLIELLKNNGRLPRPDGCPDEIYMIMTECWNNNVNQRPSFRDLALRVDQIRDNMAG

As a reminder, the IC50 is the point on the concentration scale where inhibition reaches its midpoint. Take `C[C@@H](O)Cn1cc(Nc2ncc(Cl)c(N3C[C@]4(C)CN(C(=O)C5CC5)C[C@]4(C)C3)n2)cn1` [Compound 17, ((3aR,6aS)-5-(5-chloro-2-((1-((R)-2-hydroxypropyl)-1H-pyrazol-4-yl)amino)pyrimidin-4-yl)-3a,6a-dimethylhexahydropyrrolo[3,4-c]pyrrol-2(1H)-yl)(cyclopropyl)methanone]: the 50% inhibitory concentration (IC50) in assay [1] turned out to be 3.2 nM; in assay [2], 1.6 nM. For the same compound, in assay [3], the pIC50 was 5.98.
For the compound `Cn1cc(Nc2ncc(Cl)c(N3C[C@@H]4CN(C(=O)CC#N)C[C@]4(C)C3)n2)cn1` (racemic) [Compound 63, cis-3-(5-(5-chloro-2-((1-methyl-IH-pyrazol-4-yl)amino)pyrimidin-4-yl)-3a-methylhexahydropyrrolo[3,4-c]pyrrol-2(1H)-yl)-3-oxopropanenitrile], the IC50 was 1.2 nM in assay [1] and 0.3 nM in assay [2]. In assay [3], the pIC50 was 6.57.
With `Cn1cc(Nc2ncc(Cl)c(N3C[C@]4(C)CN(C(=O)C5COC5)C[C@]4(C)C3)n2)cn1` [Compound 39, ((3aR,6aS)-5-(5-chloro-2-((1-methyl-1H-pyrazol-4-yl)amino)pyrimidin-4-yl)-3a,6a-dimethylhexahydropyrrolo[3,4-c]pyrrol-2(1H)-yl)(oxetan-3-yl)methanone], the IC50 was found to be 11 nM in assay [1] and 4.4 nM in assay [2]. For the same compound, the pIC50 in assay [3] was 6.04.
Take `Cn1cc(Nc2ncc(Cl)c(N3C[C@]4(C)CN(CC(F)(F)F)C[C@]4(C)C3)n2)cn1` [Compound 40, 5-chloro-4-((3aR,6aS)-3a,6a-dimethyl-5-(2,2,2-trifluoroethyl)hexahydropyrrolo[3,4-c]pyrrol-2(1H)-yl)-N-(1-methyl-1H-pyrazol-4-yl)pyrimidin-2-amine]: the IC50 in assay [1] worked out at 1.2 nM; in assay [2] it was 0.4 nM. Also, the pIC50 in assay [3] was 6.37.
With `Cn1cc(Nc2ncc(Cl)c(N3C[C@@H]4CN(C(=O)c5ccno5)C[C@]4(C)C3)n2)cn1` (racemic) [Compound 64, cis-(5-(5-chloro-2-((1-methyl-1H-pyrazol-4-yl)amino)pyrimidin-4-yl)-3a-methylhexahydropyrrolo[3,4-c]pyrrol-2(1H)-yl)(isoxazol-5-yl)methanone], the IC50 came to 3.3 nM in assay [1] and 0.5 nM in assay [2]. In addition, in assay [3], the pIC50 was 6.79.
Turning to `Cn1cc(Nc2ncc(Cl)c(N3C[C@]4(C)CN(c5ccncn5)C[C@]4(C)C3)n2)cn1` [Compound 25, 5-chloro-4-((3aR,6aS)-3a,6a-dimethyl-5-(pyrimidin-4-yl)hexahydropyrrolo[3,4-c]pyrrol-2(1H)-yl)-N-(1-methyl-1H-pyrazol-4-yl)pyrimidin-2-amine], the half-inhibitory concentration (IC50) in assay [1] came to 0.9 nM; in assay [2] it was 0.3 nM. Further, the pIC50 in assay [3] was 6.40.
Regarding `CC(=O)N1C[C@@]2(C)CN(c3nc(Nc4cnn(C)c4)ncc3Cl)C[C@@]2(C)C1` [Compound 19, 1-((3aR,6aS)-5-(5-chloro-2-((1-methyl-1H-pyrazol-4-yl)amino)pyrimidin-4-yl)-3a,6a-dimethylhexahydropyrrolo[3,4-c]pyrrol-2(1H)-yl)ethan-1-one], the results for the IC50 in assay [1] and in assay [2] were 8.8 nM and 14 nM, respectively. For the same compound, the pIC50 in assay [3] was 6.15.
The corresponding values for `Cn1cc(Nc2ncc(Cl)c(N3C[C@]4(C)CN(C(=O)CC(F)F)C[C@]4(C)C3)n2)cn1` [Compound 52] are 1.8 nM, 0.9 nM and 6.54.
For `Cn1cc(Nc2ncc(F)c(N3C[C@]4(C)CN(CC(F)F)C[C@]4(C)C3)n2)cn1` [Compound 14, 4-((3aR,6aS)-5-(2,2-difluoroethyl)-3a,6a-dimethylhexahydropyrrolo[3,4-c]pyrrol-2(1H)-yl)-5-fluoro-N-(1-methyl-1H-pyrazol-4-yl)pyrimidin-2-amine], the IC50 in assay [1] turned out to be 68 nM; in assay [2], 14 nM. Moreover, in assay [3], the pIC50 was 5.88.
For the compound `C[C@@]12CN(C(=O)C3CC3)C[C@]1(C)CN(c1nc(Nc3cnn(CCO)c3)ncc1Cl)C2` [Compound 32], the 50% inhibitory concentration (IC50) in assay [1] is 1 nM; in assay [2], 0.5 nM. Further, the pIC50 in assay [3] was 6.18.
As for `Cn1cc(Nc2ncc(F)c(N3C[C@]4(C)CN(C(=O)C5CC5)C[C@]4(C)C3)n2)cn1` [Compound 11], the results for the IC50 in assay [1] and in assay [2] were 137 nM and 21 nM, respectively. Besides, in assay [3], the pIC50 is 5.17.
Take `Cn1cc(Nc2ncc(Cl)c(N3C[C@H]4CN(C(=O)CC#N)C[C@@]4(C)C3)n2)cn1` [Compound 89, 3-((3aR,6aS)-5-(5-chloro-2-((1-methyl-1H-pyrazol-4-yl)amino)pyrimidin-4-yl)-3a-methylhexahydropyrrolo[3,4-c]pyrrol-2(1H)-yl)-3-oxopropanenitrile]: the IC50 stood at 4.5 nM in assay [1] and 2.6 nM in assay [2]. In assay [3], the pIC50 was 6.14.
As to `C[C@@]12CN(C(=O)C3CC3)C[C@]1(C)CN(c1nc(Nc3cnn(C(F)F)c3)ncc1Cl)C2` [Compound 30, ((3aR,6aS)-5-(5-chloro-2-((1-(difluoromethyl)-1H-pyrazol-4-yl)amino)pyrimidin-4-yl)-3a,6a-dimethylhexahydropyrrolo[3,4-c]pyrrol-2(1H)-yl)(cyclopropyl)methanone], the IC50 in assay [1] was 4.6 nM; in assay [2], 1.4 nM. Moreover, in assay [3], the pIC50 was 5.92.
For `Cn1cc(Nc2ncc(Cl)c(N3C[C@]4(C)CN(c5ccccn5)C[C@]4(C)C3)n2)cn1` [Compound 54, 5-chloro-4-((3aR,6aS)-3a,6a-dimethyl-5-(pyridin-2-yl)hexahydropyrrolo[3,4-c]pyrrol-2(1H)-yl)-N-(1-methyl-1H-pyrazol-4-yl)pyrimidin-2-amine], the IC50 in assay [1] turned out to be 0.9 nM; in assay [2], 0.2 nM. The pIC50 in assay [3] was 6.03.
The corresponding values for `Cn1cc(Nc2ncc(Cl)c(N3C[C@]4(C)CN(Cc5ccno5)C[C@]4(C)C3)n2)cn1` [Compound 50, 5-chloro-4-((3aR,6aS)-5-(isoxazol-5-ylmethyl)-3a,6a-dimethylhexahydropyrrolo[3,4-c]pyrrol-2(1H)-yl)-N(1-methyl-1H-pyrazol-4-yl)pyrimidin-2-amine] are 0.1 nM, 0.3 nM and 7.37.
Consider `Cn1cc(Nc2ncc(Cl)c(N3C[C@H]4CN(C(=O)[C@@H]5CC5(F)F)C[C@@]4(C)C3)n2)cn1` [Compound 91, ((3aR,6aS)-5-(5-chloro-2-((1-methyl-1H-pyrazol-4-yl)amino)pyrimidin-4-yl)-3a-methylhexahydropyrrolo[3,4-c]pyrrol-2(1H)-yl)((S)-2,2-difluorocyclopropyl)methanone], for which the IC50 in assay [1] is 2.6 nM; in assay [2], 3.2 nM. For the same compound, the pIC50 in assay [3] was 6.41.

These data come from patent US12448382B2, “Heterocyclic compounds for mediating tyrosine kinase 2 activity” (GUANGZHOU INNOCARE PHARMA TECH CO., LTD., priority 2019, dated 2025).
